According to US8975264B2, “Compound acting as a cannabinoid receptor-1 inhibitor” (Amorepacific Corporation, priority 2010, dated 2015):
pIC50: −log10 of the molar value.

These molecules were tested against human CB1 (cannabinoid receptor 1) (Homo sapiens, UniProt P21554) (assay: CB1 receptor inhibition effect: calcium ion influx assay (Fluo-4 NW) in Chem-1 cells after 1 μM R-(+)-WIN55212-2). Conditions: calcium ion influx in Chem-1 cells expressing human CB1, 1 μM R-(+)-WIN55212-2.
Chain of human CB1 (cannabinoid receptor 1) (P21554 whole entry): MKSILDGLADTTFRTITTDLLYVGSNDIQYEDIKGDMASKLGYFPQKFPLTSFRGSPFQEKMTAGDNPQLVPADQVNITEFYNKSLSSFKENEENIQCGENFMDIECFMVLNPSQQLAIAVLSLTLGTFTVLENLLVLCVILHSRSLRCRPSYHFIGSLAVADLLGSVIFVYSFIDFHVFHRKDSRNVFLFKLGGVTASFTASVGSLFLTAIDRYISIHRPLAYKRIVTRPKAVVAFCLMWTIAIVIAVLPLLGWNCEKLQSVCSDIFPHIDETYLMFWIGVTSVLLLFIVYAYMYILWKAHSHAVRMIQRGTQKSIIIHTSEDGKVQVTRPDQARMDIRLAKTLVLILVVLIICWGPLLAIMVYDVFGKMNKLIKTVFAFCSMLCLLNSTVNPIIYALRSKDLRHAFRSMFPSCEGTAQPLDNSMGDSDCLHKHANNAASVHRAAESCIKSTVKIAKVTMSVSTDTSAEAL
Format: cell-based
Description: When cells in which the cannabinoid receptor 1 (CB1) is stably expressed are treated with a CB1 receptor agonist, the CB1 receptor is activated and influx of calcium ions into the cells increases. CB1 receptor inhibition effect of a test compound can be evaluated by measuring the degree of calcium influx inhibition after treating with the test compound.
First, Chem-1 cells (Chemicon International, #HTS019C) in which human CB1 cDNA is expressed stably were seeded onto a 96-well cell culture plate at a density of ˜50,000 cells/well and incubated overnight in a 5% CO2 incubator at 37° C. The next day, the culture medium was discarded and the cells were cautiously washed once using an assay buffer (HBSS containing 20 mM HEPES and 2.5 mM probenecid) with 200 μL/well. Calcium ion influx was measured using an assay kit (Fluo-4 NW calcium assay kit: Molecular Probes™, #F36206) according to the manufacturer's instructions. The compounds of Examples of desired concentration to be measured were comprised to 0.5% DMSO. For control, only 0.5% DMSO was used without the compounds of Examples. Reaction time was 10 minutes. After treating the Chem-1 cells stably expressing the CB1 receptor with 1 μM R-(+)-WIN55212-2 (Sigma, #W102), a CB1 receptor agonist, calcium ion (Ca^2+) flux induced thereby was measured for 80 seconds using Flex Station 3 (Molecular Device, USA).
The difference in calcium ion concentration of the cells treated with the compounds of Examples or those treated with 1 μM R-(+)-WIN55212-2 was obtained from the difference of the maximum and minimum values during the 80 seconds. Then, % inhibition of the compounds for the CB1 receptor was calculated using the following equation. % inhibition={1−(ΔRFUcompound−ΔRFUBlank)/(ΔRFUControl−ΔRFUBlank)}×100 [Equation]
ΔRFU: maximum relative fluorescence units−minimum relative fluorescence units
ΔRFUCompound: difference in maximum and minimum RFUs in the well where the compounds of Examples dissolved in DMSO to a final concentration of 0.5% and 1 μM R-(+)-WIN55212-2 dissolved in DMSO to a final concentration of 0.5% were added
ΔRFUBlank: difference in maximum and minimum RFUs in the well to which only 1% DMSO was added
ΔRFUControl: difference in maximum and minimum RFUs in the well where 0.5% DMSO and 1 μM R-(+)-WIN55212-2 dissolved in DMSO to a final concentration of 0.5% were added
For COc1ccc(-c2c(C)nn3c(-c4ccc(OC)cc4)cc(N4CCC[C@H]4CO)nc23)cc1 [Example 40], the pIC50 was 6.46.
With CCOCc1nn2c(-c3cccc(F)c3)cc(N(C)CCO)nc2c1-c1ccc(Cl)cc1 [Example 243] the pIC50 was 8.15.
CCc1nn2c(-c3cccc(F)c3)cc(N3CCC[C@H]3CO)nc2c1-c1ccc(C)cc1 [Example 200] gave a pIC50 of 6.96.
COc1ccc(-c2c(C)nn3c(-c4cccc(F)c4)cc(N4CCC[C@H]4CO)nc23)cc1 [Example 111] gave a pIC50 of 7.22.
For CCOCc1nn2c(-c3cccc(F)c3)cc(N3CCC[C@H]3CO)nc2c1-c1ccc(OC)cc1 [Example 210], the pIC50 was 6.77.
COCc1nn2c(-c3cccc(F)c3)cc(N(C)CCO)nc2c1-c1ccc(Cl)cc1 [Example 261] was tested, and the pIC50 was 8.05.
Work on Cc1nn2c(-c3cccc(Cl)c3)cc(N3CCC[C@H]3CO)nc2c1-c1ccc(Cl)cc1 [Example 2, (S)-(1-(3-(4-chlorophenyl)-7-(3-chlorophenyl)-2-methylpyrazolo[1,5-a]pyrimidin-5-yl)pyrrolidin-2-yl)methanol] yielded a pIC50 of 7.00.
Work on CCc1cccc(-c2cc(N3CCC[C@H]3CO)nc3c(-c4ccc(C)cc4)c(C)nn23)c1 [Example 31] yielded a pIC50 of 6.89.
Cc1ccc(-c2cnn3c(-c4ccc(F)c(F)c4)cc(N4CCC[C@H]4CO)nc23)cc1 [Example 272] was tested, and the pIC50 was 6.16.
In the case of Cc1nn2c(-c3cccc(Cl)c3)cc(N3CCC[C@H]3CO)nc2c1-c1ccc2c(c1)OCO2 [Example 172], the pIC50 was 6.72.
Molecule COCc1nn2c(-c3cccc(C#N)c3)cc(N3CCC[C@H]3CO)nc2c1-c1ccc(OC)cc1 [Example 228] has a pIC50 of 7.66.
COc1ccc(-c2c(C)nn3c(-c4ccc(C)cc4)cc(N4CCC[C@H]4CO)nc23)cc1 [Example 42] showed a pIC50 of 6.46.
With COc1ccc(-c2c(C)nn3c(-c4ccc(F)c(F)c4)cc(N4CCC[C@H]4CO)nc23)cc1F [Example 187] the pIC50 was 6.41.
Molecule CCOc1ccc(-c2c(C)nn3c(-c4cccc(C)c4)cc(N4CCC[C@H]4CO)nc23)cc1 [Example 158] has a pIC50 of 6.68.
Molecule C=Cc1ccc(-c2c(C)nn3c(-c4ccc(F)cc4)cc(N4CCC[C@H]4CO)nc23)cc1 [Example 71] has a pIC50 of 6.68.
In the case of CCOCc1nn2c(-c3ccc(F)cc3)cc(N3CCC[C@H]3CO)nc2c1-c1ccc(Cl)cc1 [Example 206], the pIC50 was 8.10.
Work on CCOc1ccc(-c2c(C)nn3c(-c4ccc(C)cc4)cc(N4CCC[C@H]4CO)nc23)cc1 [Example 53] yielded a pIC50 of 6.41.
Work on Cc1nn2c(-c3ccc(F)cc3)cc(N3CCC[C@H]3CO)nc2c1-c1ccc(Cl)c(Cl)c1 [Example 96] yielded a pIC50 of 6.51.
Work on C=Cc1ccc(-c2c(C)nn3c(-c4cccc(C)c4)cc(N4CCC[C@H]4CO)nc23)cc1 [Example 165] yielded a pIC50 of 6.48.
Cc1cccc(-c2cc(N3CCC[C@H]3CO)nc3c(-c4ccc5c(c4)OCO5)c(C)nn23)c1 [Example 159] was tested, and the pIC50 was 6.70.
Work on Cc1nn2c(-c3ccc(F)cc3)cc(N3CCC[C@H]3CO)nc2c1-c1ccc2c(c1)OCO2 [Example 66] yielded a pIC50 of 6.85.
C=Cc1ccc(-c2c(C)nn3c(-c4cccc(F)c4)cc(N4CCC[C@H]4CO)nc23)cc1 [Example 117] was tested, and the pIC50 was 6.62.
With Cc1cccc(-c2cc(N3CCC[C@H]3CO)nc3c(-c4ccc(Cl)cc4)c(C)nn23)c1 [Example 12] the pIC50 was 6.68.
Molecule Cc1nn2c(-c3ccc(F)cc3)cc(N3CCC[C@H]3CO)nc2c1-c1ccc(C(F)(F)F)cc1 [Example 69] has a pIC50 of 6.66.
COCc1nn2c(-c3cccc(C)c3)cc(N(C)CCO)nc2c1-c1ccc(Cl)cc1 [Example 262] showed a pIC50 of 7.74.
Cc1ccc(-c2c(C)nn3c(-c4ccccc4)cc(N4CCC[C@H]4CO)nc23)cc1 [Example 28] gave a pIC50 of 6.92.
For Cc1ccc(-c2c(C)nn3c(-c4ccc(C)cc4)cc(N4CCC[C@H]4CO)nc23)cc1 [Example 30], the pIC50 was 6.80.
COCc1nn2c(-c3cccc(C(F)(F)F)c3)cc(N3CCC[C@H]3CO)nc2c1-c1ccc(OC)cc1 [Example 221, (S)-{1-[2-methoxymethyl-7-(3-(trifluoromethyl)phenyl)-3-(4-methoxyphenyl)-pyrazolo[1,5-a]pyrimidin-5-yl]pyrrolidin-2-yl}methanol] showed a pIC50 of 8.15.
For CCc1ccc(-c2c(C)nn3c(-c4ccc(C)cc4)cc(N4CCC[C@H]4CO)nc23)cc1 [Example 182], the pIC50 was 6.51.
COCc1nn2c(-c3ccc(F)cc3)cc(N3CCC[C@H]3CO)nc2c1-c1ccc(OC)cc1 [Example 222] showed a pIC50 of 8.10.
Work on CCOCc1nn2c(-c3cccc(C(F)(F)F)c3)cc(N(C)CCO)nc2c1-c1ccc(Cl)cc1 [Example 244] yielded a pIC50 of 8.15.
For CCOCc1nn2c(-c3cccc(C(F)(F)F)c3)cc(N3CCC[C@H]3CO)nc2c1-c1ccc(OC)cc1 [Example 212], the pIC50 was 7.59.
With Cc1cccc(-c2cc(N3CCC[C@H]3CO)nc3c(-c4ccc(C(F)F)cc4)c(C)nn23)c1 [Example 160] the pIC50 was 6.96.
Work on Cc1nn2c(-c3cc(F)cc(F)c3)cc(N3CCC[C@H]3CO)nc2c1-c1ccc2c(c1)OCO2 [Example 62, (S)-(1-(3-(3,4-methylenedioxyphenyl)-7-(3,5-difluorophenyl)-2-methylpyrazolo[1,5-a]pyrimidin-5-yl)pyrrolidin-2-yl)methanol] yielded a pIC50 of 7.15.
Work on CCOCc1nn2c(-c3ccc(F)cc3)cc(N3CCC[C@H]3CO)nc2c1-c1ccc(OC)cc1 [Example 209] yielded a pIC50 of 7.28.
CCOCc1nn2c(-c3cccc(C(F)(F)F)c3)cc(N(C)CCO)nc2c1-c1ccc(OC)cc1 [Example 247] showed a pIC50 of 7.80.
For Cc1ccc(-c2c(C)nn3c(-c4cccc(Cl)c4)cc(N4CCC[C@H]4CO)nc23)cc1F [Example 176], the pIC50 was 6.57.
Molecule OC[C@@H]1CCCN1c1cc(-c2ccc(F)cc2)n2nc(C3CC3)c(-c3ccc(Cl)cc3)c2n1 [Example 196, (S)-(1-(3-(4-chlorophenyl)-7-(4-fluorophenyl)-2-cyclopropylpyrazolo[1,5-a]pyrimidin-5-yl)pyrrolidin-2-yl)methanol] has a pIC50 of 6.85.
Molecule COCc1nn2c(-c3cccc(F)c3)cc(N3CCC[C@H]3CO)nc2c1-c1ccc(Cl)cc1 [Example 232] has a pIC50 of 8.40.
For CCOCc1nn2c(-c3cccc(Cl)c3)cc(N(C)CCO)nc2c1-c1ccc(OC)cc1 [Example 248], the pIC50 was 6.22.
Cc1nn2c(-c3ccc(F)cc3)cc(N3CCC[C@H]3CO)nc2c1-c1ccc(C(F)F)cc1 [Example 67] showed a pIC50 of 7.03.
Cc1ccc(-c2c(C)nn3c(-c4cccc(C)c4)cc(N4CCC[C@H]4CO)nc23)cc1 [Example 156] was tested, and the pIC50 was 7.34.
Molecule CCOCc1nn2c(-c3cccc(F)c3)cc(N(C)CCO)nc2c1-c1ccc(C)cc1 [Example 240] has a pIC50 of 8.00.
In the case of CCc1nn2c(-c3ccc(F)cc3)cc(N3CCC[C@H]3CO)nc2c1-c1ccc(C)cc1 [Example 198, (S)-(1-(3-(4-methylphenyl)-7-(4-fluorophenyl)-2-ethylpyrazolo[1,5-a]pyrimidin-5-yl)pyrrolidin-2-yl)methanol], the pIC50 was 7.30.
CCOCc1nn2c(-c3cccc(C(F)(F)F)c3)cc(N(C)CCO)nc2c1-c1ccc(C)cc1 [Example 241] showed a pIC50 of 8.00.
CCOc1ccc(-c2c(C)nn3c(-c4cccc(OC)c4)cc(N4CCC[C@H]4CO)nc23)cc1 [Example 51] gave a pIC50 of 6.60.
For COc1cccc(-c2cc(N3CCC[C@H]3CO)nc3c(-c4ccc(C)c(F)c4)c(C)nn23)c1 [Example 183], the pIC50 was 6.89.
In the case of CCOCc1nn2c(-c3cccc(OC)c3)cc(N3CCC[C@H]3CO)nc2c1-c1ccc(C)cc1 [Example 203], the pIC50 was 7.52.
Cc1ccc(-c2c(C)nn3c(-c4cccc(C(F)(F)F)c4)cc(N4CCC[C@H]4CO)nc23)cc1F [Example 137] was tested, and the pIC50 was 7.05.
